Results as given in patent publication US11339161B2, “Triazolo pyridines as modulators of gamma-secretase” (Boehringer Ingelheim International GmbH, priority 2017, dated 2022).
Read-outs that look alike come from different tables or passages of the source.

Tests used:
[1] = molecular target: FGFR2 (Homo sapiens, UniProt P21802); experiment: Z'-LYTE SelectScreen biochemical kinase assay FGFR2
Description: (§1) Thermo Fisher Scientific SelectScreen™ Biochemical Kinase Profiling Service Z′-LYTE™ Screening Protocol and Assay Conditions Assay Theory
(§2) The […] biochemical assay employs a fluorescence-based, coupled-enzyme format and is based on the differential sensitivity of phosphorylated and non-phosphorylated peptides to proteolytic cleavage. The peptide substrate is labeled with two fluorophores—one at each end—that make up a FRET pair. In the primary reaction, the kinase transfers the gamma-phosphate of ATP to a single tyrosine, serine or threonine residue in a synthetic FRET-peptide. In the secondary reaction, a site-specific protease recognizes and cleaves non-phosphorylated FRET-peptides. Phosphorylation of FRET-peptides suppresses cleavage by the Development Reagent. Cleavage disrupts FRET between the donor (i.e., coumarin) and acceptor (i.e., fluorescein) fluorophores on the FRET-peptide, whereas uncleaved, phosphorylated FRET-peptides maintain FRET. A ratiometric method, which calculates the ratio (Emission Ratio=Coumarin emission (445 nm)/Fluorescein emission (520 nm)) of donor emission to acceptor emission after excitation of the donor fluorophore at 400 nm, is used to quantitate reaction progress, as shown in the equation below. A significant benefit of this ratiometric method for quantitating reaction progress is the elimination of well-to-well variations in FRET-peptide concentration and signal intensities. As a result, the assay yields very high Z′-factor values (>0.7) at a low percent phosphorylation. Both cleaved and uncleaved FRET-peptides contribute to the fluorescence signals and therefore to the Emission Ratio. The extent of phosphorylation of the FRET-peptide can be calculated from the Emission Ratio. The Emission Ratio will remain low if the FRET-peptide is phosphorylated (i.e., no kinase inhibition) and will be high if the FRET-peptide is non-phosphorylated (i.e., kinase inhibition).
(§3) The Test Compounds are screened in 1% DMSO (final) in the well. For 10 point titrations, 3-fold serial dilutions are conducted from the starting concentration of the customer's choosing.
(§4) All Peptide/Kinase Mixtures are diluted to a 2× working concentration in the appropriate Kinase Buffer (see section Kinase Specific Assay Conditions for a complete description).
(§5) All ATP Solutions are diluted to a 4× working concentration in Kinase Buffer (50 mM HEPES pH 7.5, 0.01% BRIJ-35, 10 mM MgCl2, 1 mM EGTA). ATP Km apparent is previously determined using a Z″-LYTE assay.
(§6) The Development Reagent is diluted in Development Buffer (see section Kinase-Specific Assay Conditions—Direct and Cascade for a complete description).
(§7) Bar-coded Corning, low volume NBS, black 384-well plate (Corning Cat. #4514) • 1. 100 nL—100× Test Compound in 100% DMSO • 2. 2.4 μL—Kinase buffer • 3. 5 μL—2× Peptide/Kinase Mixture • 4. 2.5 μL—4×ATP Solution • 5. 30—second plate shake • 6. 60—minute Kinase Reaction incubation at room temperature • 7. 5 μL—Development Reagent Solution • 8. 30—second plate shake • 9. 60—minute Development Reaction incubation at room temperature • 10. Read on fluorescence plate reader and analyze the data Z′-LYTE Assay Controls
(§8) SelectScreen Kinase Profiling Service uses XLfit from IDBS. The dose response curve is curve fit to model number 205 (sigmoidal dose-response model).
(§9) The 2×FGFR2/Tyr 04 mixture is prepared in 50 mM HEPES pH 7.5, 0.01% BRIJ-35, 10 mM MgCl2, 4 mM MnCl2, 1 mM EGTA, 2 mM DTT. The final 10 μL Kinase Reaction consists of 0.19-1.99 ng FGFR2 and 2 μM Tyr 04 in 50 mM HEPES pH 7.5, 0.01% BRIJ-35, 10 mM MgCl2, 2 mM MnCl2, 1 mM EGTA, 1 mM DTT. After the 1 hour Kinase Reaction incubation, 5 μL of a 1:64 dilution of Development Reagent B is added.

[2] = molecular target: KDR (VEGFR2) (Homo sapiens, UniProt P35968); experiment: Z'-LYTE SelectScreen biochemical kinase assay KDR (VEGFR2)
Description: as §1, §2, §3, §4, §5, §6, §7, §8
The 2×KDR (VEGFR2)/Tyr 01 mixture is prepared in 50 mM HEPES pH 7.5, 0.01% BRIJ-35, 10 mM MgCl2, 1 mM EGTA. The final 10 μL Kinase Reaction consists of 1-30 ng KDR (VEGFR2) and 2 μM Tyr 01 in 50 mM HEPES pH 7.5, 0.01% BRIJ-35, 10 mM MgCl2, 1 mM EGTA. After the 1 hour Kinase Reaction incubation, 5 μL of a 1:256 dilution of Development Reagent B is added.

[3] = molecular target: PDGFRA (PDGFR alpha) (Homo sapiens, UniProt P16234); experiment: Z'-LYTE SelectScreen biochemical kinase assay PDGFRA (PDGFR alpha)
Description: as §1, §2, §3, §4, §5, §6, §7, §8
as §9, with “2×PDGFRA (PDGFR alpha)/Tyr” for “2×FGFR2/Tyr”, “1.54-22.6” for “0.19-1.99”, “PDGFRA (PDGFR alpha)” for “FGFR2”

[4] = molecular target: CDK5/p35 (Homo sapiens, UniProt Q00535); experiment: Z'-LYTE SelectScreen biochemical kinase assay CDK5/p35
Description: as §1, §2, §3, §4, §5, §6, §7, §8
The 2×CDK5/p35/Ser/Thr 12 mixture is prepared in 50 mM HEPES pH 7.5, 0.01% BRIJ-35, 10 mM MgCl2, 1 mM EGTA. The final 10 μL Kinase Reaction consists of 0.14-1.3 ng CDK5/p35 and 2 μM Ser/Thr 12 in 50 mM HEPES pH 7.5, 0.01% BRIJ-35, 10 mM MgCl2, 1 mM EGTA. After the 1 hour Kinase Reaction incubation, 5 μL of a 1:4096 dilution of Development Reagent A is added.

[5] = 10 μmolar compound concentration, ATP at Km app, read-out: FGFR2 inhibition
[6] = read-out: % Inhibition mean FGFR2
[7] = 10 μmolar compound concentration, ATP at Km app, read-out: KDR (VEGFR2) inhibition
[8] = read-out: % Inhibition mean KDR (VEGFR2)
[9] = 10 μmolar compound concentration, ATP at Km app, read-out: PDGFRA (PDGFR alpha) inhibition
[10] = read-out: % Inhibition mean PDGFRA (PDGFR alpha)
[11] = 10 μmolar compound concentration, ATP at Km app, read-out: CDK5/p35 inhibition
[12] = read-out: % Inhibition mean CDK5/p35

KDR (VEGFR2), sequence (P35968 20-1356): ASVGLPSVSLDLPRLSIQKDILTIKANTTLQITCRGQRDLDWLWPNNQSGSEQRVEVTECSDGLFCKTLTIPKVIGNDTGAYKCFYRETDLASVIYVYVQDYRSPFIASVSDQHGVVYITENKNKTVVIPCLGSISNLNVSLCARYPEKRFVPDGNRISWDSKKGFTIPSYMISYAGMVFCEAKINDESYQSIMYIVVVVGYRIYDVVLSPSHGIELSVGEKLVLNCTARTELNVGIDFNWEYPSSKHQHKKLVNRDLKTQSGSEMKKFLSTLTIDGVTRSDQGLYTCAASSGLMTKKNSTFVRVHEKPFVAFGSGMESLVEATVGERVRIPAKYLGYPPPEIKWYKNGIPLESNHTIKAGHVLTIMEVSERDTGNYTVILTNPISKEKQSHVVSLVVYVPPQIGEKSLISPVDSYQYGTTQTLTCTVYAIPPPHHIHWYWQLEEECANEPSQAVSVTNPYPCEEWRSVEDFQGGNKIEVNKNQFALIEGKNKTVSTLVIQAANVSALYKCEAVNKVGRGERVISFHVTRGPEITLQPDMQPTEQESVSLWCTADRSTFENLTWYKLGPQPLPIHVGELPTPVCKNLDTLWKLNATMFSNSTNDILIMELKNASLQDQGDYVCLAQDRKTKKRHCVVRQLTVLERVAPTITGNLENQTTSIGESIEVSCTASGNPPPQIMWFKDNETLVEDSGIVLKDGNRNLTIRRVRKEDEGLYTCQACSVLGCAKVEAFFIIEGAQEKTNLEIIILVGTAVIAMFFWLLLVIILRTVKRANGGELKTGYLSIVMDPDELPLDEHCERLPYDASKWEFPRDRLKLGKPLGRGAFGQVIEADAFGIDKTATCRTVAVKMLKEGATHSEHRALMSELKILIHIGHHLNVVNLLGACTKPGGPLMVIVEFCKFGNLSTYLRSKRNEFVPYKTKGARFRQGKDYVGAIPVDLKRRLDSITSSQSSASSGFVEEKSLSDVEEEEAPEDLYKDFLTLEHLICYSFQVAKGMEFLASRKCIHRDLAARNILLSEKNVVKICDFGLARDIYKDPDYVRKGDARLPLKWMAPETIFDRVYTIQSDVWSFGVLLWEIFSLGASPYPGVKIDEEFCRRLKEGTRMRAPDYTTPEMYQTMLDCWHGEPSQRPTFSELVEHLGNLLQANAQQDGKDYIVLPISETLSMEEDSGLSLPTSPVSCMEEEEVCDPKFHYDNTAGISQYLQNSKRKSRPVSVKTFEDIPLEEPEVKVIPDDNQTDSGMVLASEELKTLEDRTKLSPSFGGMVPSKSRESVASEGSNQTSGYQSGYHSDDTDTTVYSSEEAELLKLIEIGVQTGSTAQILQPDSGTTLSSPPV
CDK5/p35, sequence (Q00535 whole entry): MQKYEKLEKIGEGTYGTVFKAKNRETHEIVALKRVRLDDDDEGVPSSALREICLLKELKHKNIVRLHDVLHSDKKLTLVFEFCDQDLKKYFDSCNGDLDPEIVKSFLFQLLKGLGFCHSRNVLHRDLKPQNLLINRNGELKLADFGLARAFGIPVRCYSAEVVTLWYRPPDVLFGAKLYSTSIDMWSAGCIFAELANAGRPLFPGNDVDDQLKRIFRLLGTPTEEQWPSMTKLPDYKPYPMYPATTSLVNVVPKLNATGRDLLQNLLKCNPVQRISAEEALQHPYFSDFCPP
CDK5/p35, sequence (Q15078 whole entry partner): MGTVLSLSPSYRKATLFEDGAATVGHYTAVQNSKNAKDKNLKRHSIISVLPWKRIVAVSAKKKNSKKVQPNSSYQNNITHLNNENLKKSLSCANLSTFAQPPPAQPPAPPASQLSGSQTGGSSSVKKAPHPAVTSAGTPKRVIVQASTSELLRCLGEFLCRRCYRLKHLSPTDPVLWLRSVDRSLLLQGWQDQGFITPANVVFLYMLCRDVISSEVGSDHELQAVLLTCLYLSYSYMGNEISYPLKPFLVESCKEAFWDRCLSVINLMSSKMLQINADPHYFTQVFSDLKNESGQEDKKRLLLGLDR
FGFR2, sequence (P21802 22-821): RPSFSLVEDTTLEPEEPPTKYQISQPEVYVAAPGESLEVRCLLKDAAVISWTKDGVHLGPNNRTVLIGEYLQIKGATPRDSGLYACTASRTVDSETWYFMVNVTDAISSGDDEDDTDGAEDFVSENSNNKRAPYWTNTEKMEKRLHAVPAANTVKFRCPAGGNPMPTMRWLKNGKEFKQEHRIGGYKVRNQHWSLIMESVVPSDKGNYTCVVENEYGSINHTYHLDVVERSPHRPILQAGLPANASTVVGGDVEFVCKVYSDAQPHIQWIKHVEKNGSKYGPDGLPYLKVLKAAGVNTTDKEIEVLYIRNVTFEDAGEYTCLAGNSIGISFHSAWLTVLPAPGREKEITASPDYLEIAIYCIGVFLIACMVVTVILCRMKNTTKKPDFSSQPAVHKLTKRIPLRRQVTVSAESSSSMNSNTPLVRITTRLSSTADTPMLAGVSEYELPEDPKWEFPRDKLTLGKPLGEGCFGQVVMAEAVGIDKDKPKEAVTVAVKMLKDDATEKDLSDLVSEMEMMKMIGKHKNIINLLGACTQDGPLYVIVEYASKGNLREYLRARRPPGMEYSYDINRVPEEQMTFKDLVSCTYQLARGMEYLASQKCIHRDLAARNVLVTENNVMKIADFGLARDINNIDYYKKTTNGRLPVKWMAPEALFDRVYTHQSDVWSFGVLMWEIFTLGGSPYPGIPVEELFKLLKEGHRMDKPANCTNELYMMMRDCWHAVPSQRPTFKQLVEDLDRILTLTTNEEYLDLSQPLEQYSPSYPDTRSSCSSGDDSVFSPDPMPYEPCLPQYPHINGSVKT
PDGFRA (PDGFR alpha), sequence (P16234 24-1089): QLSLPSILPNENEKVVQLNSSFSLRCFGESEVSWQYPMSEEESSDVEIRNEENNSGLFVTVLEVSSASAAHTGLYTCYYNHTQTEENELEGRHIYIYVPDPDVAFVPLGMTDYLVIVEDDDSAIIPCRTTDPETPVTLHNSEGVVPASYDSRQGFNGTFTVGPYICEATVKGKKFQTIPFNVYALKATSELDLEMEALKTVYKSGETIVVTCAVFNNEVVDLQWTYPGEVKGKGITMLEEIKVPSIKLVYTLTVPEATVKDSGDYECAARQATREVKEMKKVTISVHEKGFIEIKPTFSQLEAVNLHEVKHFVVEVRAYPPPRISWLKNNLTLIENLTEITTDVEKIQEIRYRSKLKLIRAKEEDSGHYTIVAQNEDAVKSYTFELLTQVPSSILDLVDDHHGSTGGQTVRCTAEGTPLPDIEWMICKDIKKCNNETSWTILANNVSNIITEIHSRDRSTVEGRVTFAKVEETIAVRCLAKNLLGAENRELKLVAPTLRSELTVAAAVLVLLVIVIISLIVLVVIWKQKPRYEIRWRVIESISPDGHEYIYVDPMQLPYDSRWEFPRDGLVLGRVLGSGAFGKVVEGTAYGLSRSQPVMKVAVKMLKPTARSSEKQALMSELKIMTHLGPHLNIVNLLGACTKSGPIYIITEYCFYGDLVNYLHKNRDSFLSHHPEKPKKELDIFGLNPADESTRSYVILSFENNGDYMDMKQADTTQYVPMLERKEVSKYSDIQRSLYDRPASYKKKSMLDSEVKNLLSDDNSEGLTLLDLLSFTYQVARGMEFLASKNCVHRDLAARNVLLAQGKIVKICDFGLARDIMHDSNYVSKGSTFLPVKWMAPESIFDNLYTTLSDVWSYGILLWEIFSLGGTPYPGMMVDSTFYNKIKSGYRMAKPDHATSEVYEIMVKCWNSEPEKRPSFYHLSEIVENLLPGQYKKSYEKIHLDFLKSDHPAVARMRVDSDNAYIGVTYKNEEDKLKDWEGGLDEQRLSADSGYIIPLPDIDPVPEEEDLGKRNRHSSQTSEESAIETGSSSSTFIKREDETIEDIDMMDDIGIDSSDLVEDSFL

Structure (SMILES)	inhibition at 10 µM [1, 5] [%]	inhibition at 10 µM [1, 6] [%]	inhibition at 10 µM [2, 7] [%]	inhibition at 10 µM [2, 8] [%]	inhibition at 10 µM [3, 9] [%]	inhibition at 10 µM [3, 10] [%]	inhibition at 10 µM [4, 11] [%]	inhibition at 10 µM [4, 12] [%]	inhibition at 10 µM ([1]; read-out: % Inhibition mean) [%]	inhibition at 10 µM ([2]; read-out: % Inhibition mean) [%]	inhibition at 10 µM ([3]; read-out: % Inhibition mean) [%]	inhibition at 10 µM ([4]; read-out: % Inhibition mean) [%]
CCCn1ncc2c1CCC(Nc1nc3c(-c4ccc(F)cc4C)cccn3n1)C2 (stereo not shown) [Example 43, [8-(4-fluoro-2-methyl-phenyl)-[1,2,4]triazolo[1,5-a]pyridine-2-yl]-(1-propyl-4,5,6,7-tetrahydro-1H-indazol-5-yl)-amine]	< 40	14	< 40	-3	< 40	16	< 40	36				
CCCCCn1ncc2c1CCC(Nc1nc3c(-c4ccc(F)cc4C)cccn3n1)C2 (stereo not shown) [Example 47, [8-(4-fluoro-2-methyl-phenyl)-[1,2,4]triazolo[1,5-a]pyridine-2-yl]-(1-pentyl-4,5,6,7-tetrahydro-1H-indazol-5-yl)-amine]	< 40	21	< 40	6	< 40	10	< 40	13				
Cc1cc(F)ccc1-c1cccn2nc(NC3CCc4c(cnn4C)C3)nc12 (stereo not shown) [Example 10, [8-(4-fluoro-2-methyl-phenyl)-[1,2,4]triazolo[1,5-a]pyridine-2-yl]-(1-methyl-4,5,6,7-tetrahydro-1H-indazol-5-yl)-amine]	< 40	14	< 40	-2	< 40	8	40 to 80	44				
CCn1ncc2c1CCC(Nc1nc3c(-c4ccc(OC)nc4)cccn3n1)C2 (stereo not shown) [Example 71, (1-Ethyl-4,5,6,7-tetrahydro-1H-indazol-5-yl)-[8-(6-methoxy-pyridin-3-yl)-[1,2,4]triazolo[1,5-a]pyridine-2-yl]-amine]	< 40	27	< 40	17	< 40	21	40 to 80	53				
CCn1ncc2c1CC[C@@H](Nc1nc3c(-c4ccc(F)cc4C)cccn3n1)C2 [Example R-42, (R)-(1-Ethyl-4,5,6,7-tetrahydro-1H-indazol-5-yl)-[8-(4-fluoro-2-methyl-phenyl)-[1,2,4]triazolo[1,5-a]pyridine-2-yl]-amine]	< 40	30	< 40	10	< 40	18	< 40	39				

Next, values leading:

inhibition at 10 µM [1, 5] [%]	inhibition at 10 µM [1, 6] [%]	inhibition at 10 µM [2, 7] [%]	inhibition at 10 µM [2, 8] [%]	inhibition at 10 µM [3, 9] [%]	inhibition at 10 µM [3, 10] [%]	inhibition at 10 µM [4, 11] [%]	inhibition at 10 µM [4, 12] [%]	inhibition at 10 µM ([1]; read-out: % Inhibition mean) [%]	inhibition at 10 µM ([2]; read-out: % Inhibition mean) [%]	inhibition at 10 µM ([3]; read-out: % Inhibition mean) [%]	inhibition at 10 µM ([4]; read-out: % Inhibition mean) [%]	Structure (SMILES)
< 40	11	< 40	-8	< 40	5	< 40	28					CCn1ncc2c1CCC(Nc1nc3c(-c4cccc(Cl)c4)cccn3n1)C2 (stereo not shown) [Example 59, [8-(3-Chloro-phenyl)-[1,2,4]triazolo[1,5-a]pyridine-2-yl]-(1-ethyl-4,5,6,7-tetrahydro-1H-indazol-5-yl)-amine]
40 to 80	46	< 40	30	40 to 80	59	40 to 80	42					Cc1cc(F)ccc1-c1cccn2nc(Nc3ccc4c(cnn4C)c3)nc12 [Example 9, [8-(4-fluoro-2-methyl-phenyl)-[1,2,4]triazolo[1,5-a]pyridine-2-yl]-(1-methyl-1H-indazol-5-yl)-amine]
> 80		> 80		> 80		> 80		90	98	88	90	Fc1cccc(-c2cccn3nc(Nc4ccc5[nH]cnc5c4)nc23)c1 [Cpd. 293 in WO09155551, reference compound]
